Results: ChEMBL document CHEMBL1122975, “Potential inhibitors of S-adenosylmethionine-dependent methyltransferases. 9. 2',3'-Dialdehyde derivatives of carbocyclic purine nucleosides as inhibitors of S-adenosylhomocysteine hydrolase” (J Med Chem, 1985)

Assays:
L cells [1] = test: Percentage control of incorporation of [3H]thymidine into DNA of uninfected L-cell cultures after 72 hr exposure; assay type: functional, Mus musculus, L929; set-up: concentration or dose not given beside the values
L cells [2] = test: Percentage control of incorporation of [3H]thymidine into DNA of uninfected L-cell cultures after 36h exposure; assay type: functional, Mus musculus, L929; set-up: concentration or dose not given beside the values
L929 = test: Percentage inhibition of plaque formation, after 72 hr of incubation in virus plaque assay, prepared from monolayer cultures of mouse L 929 cells; assay type: functional; set-up: concentration or dose not given beside the values
[3] = tested on: Adenosylhomocysteinase (Bos taurus); test: Compound is evaluated for the inhibition of bovine liver S-adenosyl-homocysteine hydrolase at a concentration of 2.0 mM

| Compound | Control (L cells [1]) [%] | Control (L cells [2]) [%] | Inhibition (L929) [%] | inhibition [3] [%] |
| --- | --- | --- | --- | --- |
| Nc1nccc2c1ncn2C(C=O)CC(C=O)CO (configuration not stated) | 133 | 107 | 91 | – |
| CNc1ncnc2c1ncn2C(CO)CC(CO)CO (configuration not stated) | – | – | 7 | 82 |
| Nc1ncnc2c1ncn2C(C=O)CC(C=O)CO (configuration not stated) | 130 | 67 | 75 | – |
| Nc1ncnc2c1ncn2C(CO)CC(CO)CO (configuration not stated) | – | – | 13 | 98 |
| Nc1ncnc2c1nnn2C(CO)CC(CO)CO (configuration not stated) | – | – | 11 | 94 |
| Nc1nccc2c1ncn2[C@@H]1C[C@H](CO)[C@@H](O)[C@H]1O [3-DEAZAARISTEROMYCIN A] | 246 | 86 | 95 | – |
| CNc1ncnc2c1ncn2C1CC(CO)C(O)C1O (configuration not stated) | 137 | 95 | 19 | – |
| Nc1nccc2c1ncn2C(CO)CC(CO)CO (configuration not stated) | – | – | 9 | 94 |
| Nc1ncnc2c1nnn2C1CC(CO)C(O)C1O (configuration not stated) | 146 | 89 | 7 | – |
| Nc1ncnc2c1nnn2C(C=O)CC(C=O)CO (configuration not stated) | 81 | 91 | 63 | – |
| Nc1ncnc2c1ncn2[C@@H]1C[C@H](CO)[C@@H](O)[C@H]1O [ARISTEROMYCIN] | 134 | 81 | 65 | – |
| CNc1ncnc2c1ncn2C(C=O)CC(C=O)CO (configuration not stated) | 106 | 63 | 60 | – |
